Laboratory results reported in article PMC8399443, “Synthesis, Biological Evaluation, and In Silico Modeling of N-Substituted Quinoxaline-2-Carboxamides” (Pharmaceuticals, 2021).
In brackets after ≈: the same amount, converted by molar mass. Several values for one entry are separate records, joined by “and”; a condition that tells them apart may be missing. Identical values can stand only once. Like-named read-outs stand apart in the source and are kept apart here.

How the values were obtained:
Mtb H37Ra [1] = details: Figure 2b; cited from earlier work
HepG2 cell line = experiment: In vitro cytotoxicity, CellTiter 96 (MTS); format: cell-based; details: Homo sapiens, HepG2; cytotoxicity, 24 h incubation, CellTiter 96; read-out: HepG2 IC50
S. marcescens = experiment: In vitro antibacterial activity, microdilution broth (EUCAST); format: cell-based; details: Serratia marcescens; 48 h; standards; read-out: MIC Serratia marcescens
Mtb H37Ra [2] = experiment: In vitro antimycobacterial activity, Microplate Alamar Blue Assay (MABA); format: cell-based, Mycobacterium tuberculosis; details: for MIC: Mycobacterium tuberculosis, H37RA, read-out: MIC Mtb H37Ra; for SI (selectivity index): IC50 HepG2 (µM)/MIC Mtb H37Ra (µM)
E. faecalis = experiment: In vitro antibacterial activity, microdilution broth (EUCAST); format: cell-based; details: Enterococcus faecalis; 48 h; standards; read-out: MIC Enterococcus faecalis
K. pneumoniae = experiment: as above; format: cell-based; details: Klebsiella pneumoniae; 48 h; standards; read-out: MIC Klebsiella pneumonia
M. aurum = experiment: In vitro antimycobacterial activity, MABA; format: cell-based, Mycobacterium aurum; details: Mycolicibacterium aurum, read-out: MIC M. aurum
E. coli = experiment: In vitro antibacterial activity, microdilution broth (EUCAST); format: cell-based; details: Escherichia coli; 48 h; standards; read-out: MIC Escherichia coli
S. aureus = experiment: as above; format: cell-based; details: Staphylococcus aureus; 48 h; standards; read-out: MIC Staphylococcus aureus
M. smegmatis = experiment: In vitro antimycobacterial activity, MABA; format: cell-based, Mycobacterium smegmatis; details: Mycolicibacterium smegmatis, read-out: MIC M. smeg
P. aeruginosa = experiment: In vitro antibacterial activity, microdilution broth (EUCAST); format: cell-based; details: Pseudomonas aeruginosa; 48 h; standards; read-out: MIC Pseudomonas aeruginosa
S. epidermidis = experiment: as above; format: cell-based; details: Staphylococcus epidermidis; 48 h; standards; read-out: MIC Staphylococcus epidermidis

Row | Compound | IC50 (HepG2 cell line) | MIC (Mtb H37Ra [2]) | MIC (M. aurum; MABA) | MIC (M. smegmatis; MABA) | SI (selectivity index) (Mtb H37Ra [2]) | MIC (M. aurum) | MIC (M. smegmatis) | further results
1 | CC(=O)Oc1ccc(COC(=O)c2cnc3ccccc3n2)cc1 [4-acetoxybenzyl quinoxaline-2-carboxylate] |  |  |  |  |  |  |  | MIC for Mtb H37Ra (Mtb H37Ra [1]): 0.5 µg/mL
2 | O=C(O)c1cn(C2CC2)c2cc(N3CCNCC3)c(F)cc2c1=O [CPX, ciprofloxacin] | > 500 µM | 0.25 µg/mL and 0.75 µM | 0.0156 µg/mL | 0.125 µg/mL |  |  |  | MIC (S. marcescens): 0.256 µg/mL (≈ 0.773 µM); MIC (E. faecalis): 0.512 µg/mL (≈ 1.55 µM); MIC (K. pneumoniae): > 1.02 µg/mL; MIC (E. coli): 0.008 µg/mL (≈ 0.0241 µM); MIC (S. aureus): 0.128 to 0.256 µg/mL (≈ 0.386 to 0.773 µM); MIC (P. aeruginosa): 0.128 µg/mL (≈ 0.386 µM); MIC (S. epidermidis): > 1.02 µg/mL
3 | COc1cccc(CNC(=O)c2cnc3ccccc3n2)c1 [Compound 19] | > 1000 µM | 15.6 µg/mL and 47 µM |  |  | >21.3 | ≥ 500 µg/mL | ≥ 500 µg/mL | 
4 | COc1ccc(CNC(=O)c2cnc3ccccc3n2)cc1 [Compound 20] | 209 µM | 3.91 µg/mL and 11.8 µM |  |  | 16.1 | 125 µg/mL | ≥ 250 µg/mL | MIC Mtb H37Ra (Mtb H37Ra [2]; MABA, pH of testing medium 6.6): 3.91 (20) µg/mL
5 | O=C(NCc1cccc(F)c1)c1cnc2ccccc2n1 [Compound 21] | 248 µM | 7.81 µg/mL and 27.8 µM | ≥ 500 µg/mL | ≥ 500 µg/mL | 8.92 |  |  | 
6 | O=C(NCc1ccc(F)cc1F)c1cnc2ccccc2n1 [Compound 22] | > 25 µM | ≥ 500 µg/mL | ≥ 500 µg/mL | ≥ 500 µg/mL |  |  |  | 
7 | Cc1ccccc1CNC(=O)c1cnc2ccccc2n1 [Compound 23] | 157 µM | 7.81 µg/mL and 28.2 µM | ≥ 125 µg/mL | ≥ 125 µg/mL | 5.60 |  |  | 
8 | Cc1ccc(CNC(=O)c2cnc3ccccc3n2)cc1 [Compound 24] | 87.7 µM | 7.81 µg/mL and 28.2 µM | ≥ 250 µg/mL | ≥ 250 µg/mL | 3.11 |  |  | 
9 | O=C(NCc1ccccc1Cl)c1cnc2ccccc2n1 [Compound 25] | 528 µM | 15.6 µg/mL and 52.5 µM |  |  |  | ≥ 500 µg/mL | ≥ 500 µg/mL | 
10 | O=C(NCc1cccc(Cl)c1)c1cnc2ccccc2n1 [Compound 26] | 140 µM | 7.81 µg/mL and 26.2 µM | 31.2 µg/mL | 31.2 µg/mL | 5.34 | 105 µM | 105 µM | 
11 | O=C(NCc1ccc(Br)cc1)c1cnc2ccccc2n1 [Compound 27] | > 100 µM | 7.81 µg/mL and 22.8 µM | ≥ 500 µg/mL | ≥ 500 µg/mL | >4.4 |  |  | 
